According to patent publication US8524493B2, “Released cytokeratins as markers for epithelial cells” (Centre Hospitalier Universitaire de Montpellier, priority 2006, dated 2013):

System: CK19 protein release by viable epithelial cells (cell lines)
Experiment: CK19-EPISPOT assay with cycloheximide in cell-cultures
Format: cell-based, human
Settings: cell lines incubated with 50 μg/mL cycloheximide during the incubation step of the EPISPOT assay
Description: EPISPOT assays. Immobilon-P membrane 96-well plates (MAIPN450, Millipore Corporation, Bedford, Mass.) were coated overnight at 4° C. with the anti-CK19 mAb Ks19.1 (6 μg/mL) (Progen Biotechnik GMBH, Heidelberg, […].). Unbound mAb were removed by washing three times with PBS. The plates were then blocked with PBS supplemented with 5% FCS (Sigma, Chemical Co., Saint Louis, Mo.) for 1 h at room temperature and washed three times with PBS. To block protein synthesis, cell lines were incubated with 50 μg/mL of cycloheximide during the EPISPOT assay. Subsequently, viable cells were counted in a Kovac slide with trypan blue dye exclusion staining and finally plated in three replicate wells at different concentrations (1×10^5, 1×10^4, 1×10^3, 1×10^2, 10 and 1 cells). In addition, 5×10^4 to 1×10^5 of enriched CD45^− cells (i) from blood and bone marrow of colon and breast cancer patients, respectively, (ii) from the milk of healthy lactating women (normal primary mammary cells) or (iii) from normal and tumor colon tissues were seeded in different wells of the plates. […] Immunospots were counted by video camera imaging and computer assisted analysis (KS ELISPOT, Carl Zeiss Vision, Halbermoos, Germany). […]

C[C@@H]1C[C@@H]([C@H](O)CC2CC(=O)NC(=O)C2)C(=O)[C@@H](C)C1 [cycloheximide]
size and number of CK19 immunospots (CK19-releasing cells): decrease in the size and the number of spots
